Reference: patent EP4461731A1, “LIGANDS OF THE M6A-RNA READERS” (Universität Zürich, priority 2023, dated 2024)
Read-outs that look alike come from different tables or passages of the source.

Tests used:
Cells [1] = test: cells; settings: 72 h
Cells [2] = settings: read-out: Antiprolif. activity GI50; 72 h, CellTiter-Glo; cell line not named
[3] = read-out: Antiprolif. activity GI50
[4] = read-out: Antiprolif. activity GI50, 72 h, CellTiter-Glo, cell line not named

Row | Structure (SMILES) | GI50 (Cells [1]; [3]) | GI50 (Cells [1]; [4]) | GI50 (Cells [2])
1 | CNc1nc(Cl)nc2c1ncn2Cc1ccc(OC)c(Cl)c1 [FE150, 2-chloro-9-(3-chloro-4-methoxybenzyl)-N-methyl-9H-purin-6-amine] | ≤ 10 µM |  | 
2 | CNc1nc(Cl)nc2c1ncn2Cc1ccc(C(=O)OC)cc1 [ZA311, Methyl 4-((2-chloro-6-(methylamino)-9H-purin-9-yl)methyl)benzoate] | ≤ 10 µM |  | 
3 | CNc1nc(Cl)nc2c1ncn2Cc1cccc(C(=O)OC)c1 [ZA347, Methyl 3-((2-chloro-6-(methylamino)-9H-purin-9-yl)methyl)benzoate] |  | ≤ 10 µM | 
4 | CNc1nc(Cl)nc2c1ncn2Cc1cccc(Cl)c1 [ZA349, 2-chloro-9-(3-chlorobenzyl)-N-methyl-9H-purin-6-amine] | ≤ 10 µM |  | 
5 | CNc1nc(Cl)nc2c1ncn2Cc1ccccc1NS(C)(=O)=O [ZA364, N-(2-((2-chloro-6-(methylamino)-9H-purin-9-yl)methyl)phenyl)methanesulfonamide] |  | 21 µM | 
6 | CNc1nc(Cl)nc2c1ncn2Cc1cc(Cl)ccc1NS(C)(=O)=O [ZA400, N-(4-chloro-2-((2-chloro-6-(methylamino)-9H-purin-9-yl)methyl)phenyl) methanesulfonamide] |  | 31 µM | 21 µM
